Tests used:
[1] = target: T1, DDB1ΔBPB (Homo sapiens, UniProt Q16531, DEL400-704); assay: Differential Scanning Fluorimetry (DSF), DDB1ΔBPB; type: binding; conditions: 50 µM HQ461
T1 construct: Strep-tag (N); 8xHis (N); made in house; host or cells: Sf9
Protocol: CDK12KD/CCNKΔC (WT or G731E/R) and DDB1ΔBPB were diluted to 5 μM with DSF assay buffer (50 mM HEPES pH 7.5, 300 mM NaCl, 0.5 mM TCEP). 50 µM HQ461 or 10 µM HBx was added to diluted proteins (final DMSO concentration 0.25%). Twenty µL of protein-compound mix was aliquoted per qPCR tube (Labtidebiotech, Shanghai, China, P01-0803E) followed by the addition of 5 µL of 1:400 diluted SYPRO Orange (Sigma-Aldrich, MO, USA, S5692). After incubation on ice for 20 min, fluorescence measurements were performed using a Bio-Rad CFX96 Realtime PCR instrument. During the DSF experiment, the temperature was increased from 10°C to 95°C at an increment of 0.5 °C with equilibration time of 10 s at each temperature prior to measurement. Tm was defined as the temperature corresponding to the maximum value of the first derivative of fluorescence transition.

[2] = system: CCNK-luc reporter; assay: CCNK-luc degradation assay; type: cell-based, Homo sapiens; conditions: 8 hr
Protocol: The ORF for CCNK was fused with the firefly luciferase (luc) sequence and inserted into the pCDNA3.1 vector. For setting up cells for co-transfection, 0.6 million 293 T cells were seeded per well in 6-well plates and allowed to attach to plates overnight. These cells were then transfected with 50 ng of pCDNA3.1-3xFLAG-CDK12 kinase domain, 50 ng of pCDNA3.1-CCNK-luc, and 400 ng of the empty pCDNA3.1 vector. Twenty-four hours later, transfected cells were dissociated by trypsin digestion and then plated in 96-well white plates. After overnight attachments, cells were then treated with HQ461 and its analog derivatives for 8 hr followed by measurements of luciferase activity with Bright-Glo luciferase assay system (Promega, Madison, USA). Half maximal CCNK-degradation concentrations (DC50) of HQ461 and its active analogs were interpolated by curve fitting with GraphPad Prism using baseline correction (by normalizing to DMSO control), the asymmetric (five parameter) equation, and least squares fit.

[3] = system: CCNK; assay: In vivo polyubiquitination of CCNK (HEK293T); type: cell-based, Homo sapiens; conditions: wild-type CDK12 co-expressed
Protocol: Wild-type and G731E/R ORFs of 3 × FLAG-CDK12, either full length or the kinase domain (from resides 715–1052), were cloned into the pCDNA3.1-N-3xFLAG vector. An ORF encoding CCNK (NM_001099402.2) was PCR amplified with A549 cDNA and cloned into a pCDNA3.1-C-3xHA vector. pCMV-8 ×His Ub was a gift from Dr. William Kaelin at Dana Farber Cancer Institute of Harvard. To set up cells for the in vivo ubiquitination assay, 0.6 million HEK293T cells were seeded per well in six-well tissue-culture plates. After overnight attachment, these cells were transfected with 500 ng of pCMV 8 × His Ub, 25 ng of pCDNA3.1-CCNK-3xHA, and 50 ng of pCDNA3.1-3xFLAG-CDK12. Two days later, cells were pretreated with 1 µM of bortezomib for 2 hr, followed by treatment with DMSO or three doses of HQ461 (1, 3, 10 µM) for 4 hr. Cells from each well were rinsed once with DPBS and lysed in 500 μL of buffer 1 (25 mM Tris-HCl, pH 8.0, 8 M urea, 10 mM imidazole) freshly supplemented with one units/µL of benzonase and 1x cOmplete, Mini, EDTA-free protease inhibitor cocktail (Roche, Bazel, Switzerland). Lysates were clarified by spinning at 15,000 xg at 4°C for 10 min. Clarified lysate of each sample was mixed with 10 µL of Ni NTA magarose beads (SMART Life Sciences, Changzhou, China, SM00801) prewashed with lysis buffer. […]

[4] = target: T2, CDK12 kinase domain/CCNK-3xHA (Homo sapiens, UniProt Q9NYV4); assay: Co-expression of 3xFLAG-CDK12 kinase domain with CCNK-3xHA; type: cell-based; conditions: 293T, HQ461 8 hr; not with G731E or G731R
T2 construct: ORFs encoding residues 715–1052 of CDK12 and residues 693–1030 of CDK13; expressed in transfected cells; host or cells: 293T
T2 sequence (Q9NYV4 715-1052): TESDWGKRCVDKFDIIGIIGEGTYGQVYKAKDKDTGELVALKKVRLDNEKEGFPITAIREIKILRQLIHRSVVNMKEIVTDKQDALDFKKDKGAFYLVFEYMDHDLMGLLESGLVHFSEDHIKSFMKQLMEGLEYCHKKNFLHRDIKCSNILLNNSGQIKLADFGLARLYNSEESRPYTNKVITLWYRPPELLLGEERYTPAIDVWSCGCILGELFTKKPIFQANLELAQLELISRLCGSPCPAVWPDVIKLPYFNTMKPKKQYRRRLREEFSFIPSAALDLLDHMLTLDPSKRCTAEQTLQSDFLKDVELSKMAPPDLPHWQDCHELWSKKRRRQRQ
T2 sequence (O75909 whole entry partner, the tested form may be a part): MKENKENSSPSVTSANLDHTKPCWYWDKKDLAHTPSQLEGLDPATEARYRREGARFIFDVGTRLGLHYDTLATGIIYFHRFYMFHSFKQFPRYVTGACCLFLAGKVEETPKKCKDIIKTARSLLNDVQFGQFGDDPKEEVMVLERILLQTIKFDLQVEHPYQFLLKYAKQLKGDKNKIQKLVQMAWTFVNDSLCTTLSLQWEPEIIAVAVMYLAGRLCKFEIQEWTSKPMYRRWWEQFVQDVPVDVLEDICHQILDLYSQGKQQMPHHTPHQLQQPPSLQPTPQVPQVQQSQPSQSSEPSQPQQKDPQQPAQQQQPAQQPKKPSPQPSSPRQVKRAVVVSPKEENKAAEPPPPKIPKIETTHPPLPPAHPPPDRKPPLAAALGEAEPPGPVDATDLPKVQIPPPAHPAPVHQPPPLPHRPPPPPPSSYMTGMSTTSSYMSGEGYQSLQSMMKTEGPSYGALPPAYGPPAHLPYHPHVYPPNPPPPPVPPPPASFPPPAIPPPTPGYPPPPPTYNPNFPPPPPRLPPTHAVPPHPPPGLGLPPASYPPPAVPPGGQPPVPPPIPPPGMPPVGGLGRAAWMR
T2 sequence (Q16531 2-1140 partner limits assumed): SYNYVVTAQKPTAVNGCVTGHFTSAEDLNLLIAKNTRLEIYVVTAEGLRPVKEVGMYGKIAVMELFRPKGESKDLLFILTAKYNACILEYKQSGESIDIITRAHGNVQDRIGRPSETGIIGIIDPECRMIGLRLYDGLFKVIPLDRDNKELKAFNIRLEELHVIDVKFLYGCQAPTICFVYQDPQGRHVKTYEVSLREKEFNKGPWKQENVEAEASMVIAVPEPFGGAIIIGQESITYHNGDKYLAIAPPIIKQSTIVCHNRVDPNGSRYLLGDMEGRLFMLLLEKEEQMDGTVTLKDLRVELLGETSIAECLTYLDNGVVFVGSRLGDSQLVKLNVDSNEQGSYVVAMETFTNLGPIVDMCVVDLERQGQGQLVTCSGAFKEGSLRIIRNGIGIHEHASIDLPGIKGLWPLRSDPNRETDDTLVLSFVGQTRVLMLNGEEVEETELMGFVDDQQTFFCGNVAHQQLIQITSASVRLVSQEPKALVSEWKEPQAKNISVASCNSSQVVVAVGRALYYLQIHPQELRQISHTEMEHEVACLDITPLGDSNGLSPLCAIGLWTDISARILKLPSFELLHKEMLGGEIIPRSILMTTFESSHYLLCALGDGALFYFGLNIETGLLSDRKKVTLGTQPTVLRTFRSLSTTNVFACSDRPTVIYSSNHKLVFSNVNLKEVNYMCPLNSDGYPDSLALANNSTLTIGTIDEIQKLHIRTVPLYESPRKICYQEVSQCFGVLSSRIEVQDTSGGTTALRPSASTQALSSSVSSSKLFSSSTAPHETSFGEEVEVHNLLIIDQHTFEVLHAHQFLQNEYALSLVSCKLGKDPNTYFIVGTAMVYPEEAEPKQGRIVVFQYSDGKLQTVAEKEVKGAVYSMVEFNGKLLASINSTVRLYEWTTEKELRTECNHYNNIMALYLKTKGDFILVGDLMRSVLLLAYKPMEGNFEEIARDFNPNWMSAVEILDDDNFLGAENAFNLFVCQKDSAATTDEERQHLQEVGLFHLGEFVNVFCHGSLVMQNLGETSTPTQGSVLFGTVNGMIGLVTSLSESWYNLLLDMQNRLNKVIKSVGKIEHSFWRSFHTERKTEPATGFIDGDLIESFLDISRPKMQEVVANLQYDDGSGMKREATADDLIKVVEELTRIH
Protocol: ORFs encoding residues 715–1052 of CDK12 and residues 693–1030 of CDK13 were cloned into a pCDNA3.1-N-3xFLAG vector. For setting up cells for co-transfection, 0.6 million 293 T cells were seeded per well in 6-well tissue-culture plates and allowed to attach to plates overnight. These cells were then transfected with 50 ng of pCDNA3.1-3xFLAG-CDK12/13 kinase domain, 50 ng of pCDNA3.1-CCNK-3xHA, and 400 ng of the empty pCDNA3.1 vector. Twenty-four hours post transfection, cells were treated with HQ461 for 8 hr, and lysates were collected for western blotting with anti-FLAG and anti-HA antibodies.

T1 sequence (Q16531 with tags, fused parts or gaps DEL400-704): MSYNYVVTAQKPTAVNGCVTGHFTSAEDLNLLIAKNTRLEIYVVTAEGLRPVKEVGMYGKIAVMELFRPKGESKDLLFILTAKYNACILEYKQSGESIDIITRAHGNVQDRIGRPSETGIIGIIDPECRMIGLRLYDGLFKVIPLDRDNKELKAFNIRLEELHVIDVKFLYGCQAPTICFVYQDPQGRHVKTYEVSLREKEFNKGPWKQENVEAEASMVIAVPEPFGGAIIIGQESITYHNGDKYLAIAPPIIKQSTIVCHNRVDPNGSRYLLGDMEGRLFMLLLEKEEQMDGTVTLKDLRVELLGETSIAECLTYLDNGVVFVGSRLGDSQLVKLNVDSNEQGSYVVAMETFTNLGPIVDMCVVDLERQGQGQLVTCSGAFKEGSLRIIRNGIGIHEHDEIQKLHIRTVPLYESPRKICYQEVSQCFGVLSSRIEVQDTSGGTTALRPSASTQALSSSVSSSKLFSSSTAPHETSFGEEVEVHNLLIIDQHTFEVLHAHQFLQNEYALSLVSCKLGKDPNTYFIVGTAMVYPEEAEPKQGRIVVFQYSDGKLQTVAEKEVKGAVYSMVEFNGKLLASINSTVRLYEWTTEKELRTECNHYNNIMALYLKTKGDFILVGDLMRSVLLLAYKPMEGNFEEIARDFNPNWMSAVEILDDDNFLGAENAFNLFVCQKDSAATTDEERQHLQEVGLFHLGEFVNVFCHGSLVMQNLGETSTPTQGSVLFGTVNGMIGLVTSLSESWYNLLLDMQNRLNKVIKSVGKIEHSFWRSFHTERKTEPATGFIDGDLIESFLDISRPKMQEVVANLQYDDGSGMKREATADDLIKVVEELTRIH

With `Cc1cccc(Nc2nc(CC(=O)Nc3ncc(C)s3)cs2)n1` [HQ461, 2-(2-((6-methylpyridin-2-yl)amino)thiazol-4-yl)-N-(5-methylthiazol-2-yl)acetamide] the “thermal stability of DDB1ΔBPB” value [1] was “did not change the thermal stability”, the “Dmax (10 μM), percentage of CCNK degradation relative to DMSO control” value ([2]; 10 µM) was 86.0% and the DC50 ([2]; 293T, read-out: DC50 (half maximal CCNK-degradation concentration)) was 132 nM. For the same molecule, the “CCNK polyubiquitination in cells” value [3] was “increased CCNK polyubiquitination” and the “CCNK destabilization with co-expressed wild-type CDK12 kinase domain” value [4] was “sufficient for mediating HQ461-dependent destabilization of CCNK”.

— publication PMC7462607 (eLife, 2020)
